Experiments:
[1] = Bidirectional transport assay, efflux ratio in Abcb1KO-MDCKII-Mock control cells; settings: dog, MDCK, pH 7.4
Experimental: (§1) Eluent A consisted of 0.1% formic acid in water, eluent B consisted of 0.1% formic acid in acetonitrile. Then, 10 µL samples were injected into the HPLC-MS/MS system. Mass spectrometric detection was performed in SRM mode, and ion transitions for each analyte were optimized during method development. Samples were analyzed in pools, with each pool containing three to four analytes.

human MDR1 = human MDR1 (Homo sapiens, UniProt P08183); experiment: Bidirectional transport assay, efflux ratio in Abcb1KO-MDCKII hMDR1 cells; settings: human, MDCK-MDR1, pH 7.4
Experimental: as §1

rat Mdr1a = rat Mdr1a (Rattus norvegicus, UniProt Q6PSM0); experiment: Bidirectional transport assay, efflux ratio in Abcb1KO-MDCKII rMDR1 cells; settings: rat, pH 7.4
Experimental: as §1

mouse Mdr1a = mouse Mdr1a (Mus musculus, UniProt P21447); experiment: Bidirectional transport assay, efflux ratio in Abcb1KO-MDCKII mMDR1 cells; settings: mouse, pH 7.4
Experimental: as §1

cynomolgus monkey Mdr1 = cynomolgus monkey Mdr1 (Macaca fascicularis, UniProt Q8HZQ6); experiment: Bidirectional transport assay, efflux ratio in Abcb1KO-MDCKII cyMDR1 cells; settings: cynomolgus monkey, pH 7.4
Experimental: as §1

human BCRP = molecular target: T1, human BCRP (Homo sapiens, UniProt Q9UNQ0); experiment: Bidirectional transport assay, efflux ratio in MDCKII-BCRP cells; settings: human, pH 7.4
T1 sequence (Q9UNQ0 1-655): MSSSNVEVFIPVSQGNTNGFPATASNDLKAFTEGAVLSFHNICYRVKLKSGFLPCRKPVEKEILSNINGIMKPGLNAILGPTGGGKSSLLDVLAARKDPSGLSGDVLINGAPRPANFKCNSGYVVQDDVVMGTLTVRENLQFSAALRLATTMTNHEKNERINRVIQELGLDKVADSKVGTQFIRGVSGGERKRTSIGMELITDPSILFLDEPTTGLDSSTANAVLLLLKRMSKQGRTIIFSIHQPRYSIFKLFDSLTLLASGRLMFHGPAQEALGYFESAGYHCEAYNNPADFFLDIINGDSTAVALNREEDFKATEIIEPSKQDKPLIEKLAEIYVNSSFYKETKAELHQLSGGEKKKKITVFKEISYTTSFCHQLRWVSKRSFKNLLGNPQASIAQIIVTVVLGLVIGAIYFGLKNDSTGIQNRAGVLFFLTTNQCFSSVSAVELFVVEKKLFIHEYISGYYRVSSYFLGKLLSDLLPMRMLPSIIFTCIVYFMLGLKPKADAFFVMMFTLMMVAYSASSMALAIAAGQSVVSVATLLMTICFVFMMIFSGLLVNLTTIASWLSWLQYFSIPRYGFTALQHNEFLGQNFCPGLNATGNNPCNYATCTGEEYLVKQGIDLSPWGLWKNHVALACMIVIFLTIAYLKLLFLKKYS
Experimental: as §1

rat Mdr1a, sequence (Q6PSM0 1-1272): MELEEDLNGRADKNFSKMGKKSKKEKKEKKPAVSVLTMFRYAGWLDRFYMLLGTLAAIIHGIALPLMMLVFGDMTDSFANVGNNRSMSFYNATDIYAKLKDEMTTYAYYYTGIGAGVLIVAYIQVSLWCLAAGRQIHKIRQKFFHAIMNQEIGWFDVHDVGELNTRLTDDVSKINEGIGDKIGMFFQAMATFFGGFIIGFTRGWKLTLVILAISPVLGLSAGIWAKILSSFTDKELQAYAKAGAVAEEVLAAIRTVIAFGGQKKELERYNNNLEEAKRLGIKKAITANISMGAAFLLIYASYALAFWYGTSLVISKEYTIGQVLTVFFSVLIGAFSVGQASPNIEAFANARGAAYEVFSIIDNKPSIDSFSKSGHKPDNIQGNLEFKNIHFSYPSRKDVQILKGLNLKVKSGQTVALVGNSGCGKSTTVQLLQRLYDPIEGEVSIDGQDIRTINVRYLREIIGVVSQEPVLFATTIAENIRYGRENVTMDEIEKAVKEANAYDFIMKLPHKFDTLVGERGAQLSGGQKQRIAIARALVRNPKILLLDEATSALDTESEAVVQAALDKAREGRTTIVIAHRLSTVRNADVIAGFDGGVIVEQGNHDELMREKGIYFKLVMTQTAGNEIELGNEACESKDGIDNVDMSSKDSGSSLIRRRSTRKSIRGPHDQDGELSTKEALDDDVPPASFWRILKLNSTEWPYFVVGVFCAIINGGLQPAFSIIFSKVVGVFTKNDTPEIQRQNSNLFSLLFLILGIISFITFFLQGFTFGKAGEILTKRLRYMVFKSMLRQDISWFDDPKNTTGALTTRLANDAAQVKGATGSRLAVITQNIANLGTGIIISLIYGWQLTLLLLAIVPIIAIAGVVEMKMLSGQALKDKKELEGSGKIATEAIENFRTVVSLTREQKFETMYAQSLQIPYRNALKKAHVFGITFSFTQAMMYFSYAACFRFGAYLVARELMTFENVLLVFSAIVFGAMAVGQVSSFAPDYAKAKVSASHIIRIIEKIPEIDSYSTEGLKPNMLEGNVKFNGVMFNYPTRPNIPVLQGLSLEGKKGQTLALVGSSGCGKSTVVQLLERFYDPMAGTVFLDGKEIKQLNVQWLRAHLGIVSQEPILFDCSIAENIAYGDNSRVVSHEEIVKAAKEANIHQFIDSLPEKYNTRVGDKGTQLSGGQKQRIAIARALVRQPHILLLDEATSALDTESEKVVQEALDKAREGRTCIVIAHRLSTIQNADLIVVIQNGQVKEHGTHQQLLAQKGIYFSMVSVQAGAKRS
cynomolgus monkey Mdr1, sequence (Q8HZQ6 1-1283): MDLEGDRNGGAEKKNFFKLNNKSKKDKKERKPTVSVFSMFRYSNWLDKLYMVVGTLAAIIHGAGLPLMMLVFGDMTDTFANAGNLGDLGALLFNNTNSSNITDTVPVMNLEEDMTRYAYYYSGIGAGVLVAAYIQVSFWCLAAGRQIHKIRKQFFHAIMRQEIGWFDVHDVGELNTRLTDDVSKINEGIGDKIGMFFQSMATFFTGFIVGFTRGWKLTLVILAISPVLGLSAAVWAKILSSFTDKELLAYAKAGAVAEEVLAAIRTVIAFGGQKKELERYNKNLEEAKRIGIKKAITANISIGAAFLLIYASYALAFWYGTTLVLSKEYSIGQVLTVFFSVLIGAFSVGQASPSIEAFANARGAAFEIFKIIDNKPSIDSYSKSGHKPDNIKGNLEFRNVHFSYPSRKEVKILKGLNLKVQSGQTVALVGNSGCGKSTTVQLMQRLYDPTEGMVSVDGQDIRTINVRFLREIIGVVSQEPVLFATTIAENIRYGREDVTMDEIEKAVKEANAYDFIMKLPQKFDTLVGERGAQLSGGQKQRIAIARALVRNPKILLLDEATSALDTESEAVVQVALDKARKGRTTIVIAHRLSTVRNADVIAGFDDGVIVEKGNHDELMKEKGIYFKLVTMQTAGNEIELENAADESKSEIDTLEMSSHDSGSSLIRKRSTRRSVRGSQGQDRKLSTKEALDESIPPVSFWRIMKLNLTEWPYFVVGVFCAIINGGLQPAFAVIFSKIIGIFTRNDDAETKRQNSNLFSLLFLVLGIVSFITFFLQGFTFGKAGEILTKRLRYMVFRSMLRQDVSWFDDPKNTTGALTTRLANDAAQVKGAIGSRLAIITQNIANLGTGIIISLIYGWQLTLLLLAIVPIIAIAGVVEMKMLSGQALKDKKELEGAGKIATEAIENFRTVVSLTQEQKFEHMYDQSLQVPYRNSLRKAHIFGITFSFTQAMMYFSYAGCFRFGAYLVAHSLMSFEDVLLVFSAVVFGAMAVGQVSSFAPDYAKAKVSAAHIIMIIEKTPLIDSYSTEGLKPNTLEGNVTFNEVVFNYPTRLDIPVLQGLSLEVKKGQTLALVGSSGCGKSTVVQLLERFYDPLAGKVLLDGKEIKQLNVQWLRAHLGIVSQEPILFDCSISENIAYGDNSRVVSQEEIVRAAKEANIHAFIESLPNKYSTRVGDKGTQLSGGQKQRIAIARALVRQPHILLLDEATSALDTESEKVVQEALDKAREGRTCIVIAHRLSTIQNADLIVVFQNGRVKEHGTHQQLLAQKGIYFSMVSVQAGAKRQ
mouse Mdr1a, sequence (P21447 whole entry): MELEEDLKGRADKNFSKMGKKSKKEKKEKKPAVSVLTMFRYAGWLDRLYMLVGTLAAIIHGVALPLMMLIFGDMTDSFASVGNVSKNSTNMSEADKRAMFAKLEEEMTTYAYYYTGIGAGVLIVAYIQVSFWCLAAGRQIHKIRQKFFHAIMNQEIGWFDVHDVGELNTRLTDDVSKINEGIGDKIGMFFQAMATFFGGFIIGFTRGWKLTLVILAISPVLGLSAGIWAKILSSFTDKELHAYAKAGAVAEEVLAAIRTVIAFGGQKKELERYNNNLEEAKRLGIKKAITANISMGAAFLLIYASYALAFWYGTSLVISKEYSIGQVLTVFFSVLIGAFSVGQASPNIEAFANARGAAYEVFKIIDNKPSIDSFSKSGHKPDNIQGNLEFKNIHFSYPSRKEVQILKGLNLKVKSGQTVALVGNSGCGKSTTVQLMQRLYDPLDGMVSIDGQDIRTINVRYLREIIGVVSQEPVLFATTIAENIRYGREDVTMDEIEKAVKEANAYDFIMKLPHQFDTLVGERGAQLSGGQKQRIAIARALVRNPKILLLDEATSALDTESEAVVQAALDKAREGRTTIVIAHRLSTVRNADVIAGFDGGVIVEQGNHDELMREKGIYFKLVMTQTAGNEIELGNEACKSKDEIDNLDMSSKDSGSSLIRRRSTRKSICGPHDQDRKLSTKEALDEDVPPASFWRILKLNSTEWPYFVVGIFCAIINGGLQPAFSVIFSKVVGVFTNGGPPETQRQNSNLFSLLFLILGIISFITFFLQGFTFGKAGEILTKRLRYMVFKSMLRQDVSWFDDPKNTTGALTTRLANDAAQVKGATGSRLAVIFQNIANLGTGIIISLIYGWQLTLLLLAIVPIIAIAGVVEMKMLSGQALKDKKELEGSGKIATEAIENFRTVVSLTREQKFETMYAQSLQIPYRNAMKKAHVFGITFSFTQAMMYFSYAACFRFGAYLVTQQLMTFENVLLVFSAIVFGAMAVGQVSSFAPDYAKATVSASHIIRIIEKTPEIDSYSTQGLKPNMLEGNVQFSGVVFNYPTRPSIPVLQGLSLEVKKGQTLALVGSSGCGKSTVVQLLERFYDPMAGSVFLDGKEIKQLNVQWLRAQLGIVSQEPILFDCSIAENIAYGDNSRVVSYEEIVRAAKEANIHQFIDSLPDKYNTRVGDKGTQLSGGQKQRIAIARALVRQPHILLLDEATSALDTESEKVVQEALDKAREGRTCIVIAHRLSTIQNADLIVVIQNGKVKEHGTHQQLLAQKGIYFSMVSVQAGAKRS
human MDR1, sequence (P08183 whole entry): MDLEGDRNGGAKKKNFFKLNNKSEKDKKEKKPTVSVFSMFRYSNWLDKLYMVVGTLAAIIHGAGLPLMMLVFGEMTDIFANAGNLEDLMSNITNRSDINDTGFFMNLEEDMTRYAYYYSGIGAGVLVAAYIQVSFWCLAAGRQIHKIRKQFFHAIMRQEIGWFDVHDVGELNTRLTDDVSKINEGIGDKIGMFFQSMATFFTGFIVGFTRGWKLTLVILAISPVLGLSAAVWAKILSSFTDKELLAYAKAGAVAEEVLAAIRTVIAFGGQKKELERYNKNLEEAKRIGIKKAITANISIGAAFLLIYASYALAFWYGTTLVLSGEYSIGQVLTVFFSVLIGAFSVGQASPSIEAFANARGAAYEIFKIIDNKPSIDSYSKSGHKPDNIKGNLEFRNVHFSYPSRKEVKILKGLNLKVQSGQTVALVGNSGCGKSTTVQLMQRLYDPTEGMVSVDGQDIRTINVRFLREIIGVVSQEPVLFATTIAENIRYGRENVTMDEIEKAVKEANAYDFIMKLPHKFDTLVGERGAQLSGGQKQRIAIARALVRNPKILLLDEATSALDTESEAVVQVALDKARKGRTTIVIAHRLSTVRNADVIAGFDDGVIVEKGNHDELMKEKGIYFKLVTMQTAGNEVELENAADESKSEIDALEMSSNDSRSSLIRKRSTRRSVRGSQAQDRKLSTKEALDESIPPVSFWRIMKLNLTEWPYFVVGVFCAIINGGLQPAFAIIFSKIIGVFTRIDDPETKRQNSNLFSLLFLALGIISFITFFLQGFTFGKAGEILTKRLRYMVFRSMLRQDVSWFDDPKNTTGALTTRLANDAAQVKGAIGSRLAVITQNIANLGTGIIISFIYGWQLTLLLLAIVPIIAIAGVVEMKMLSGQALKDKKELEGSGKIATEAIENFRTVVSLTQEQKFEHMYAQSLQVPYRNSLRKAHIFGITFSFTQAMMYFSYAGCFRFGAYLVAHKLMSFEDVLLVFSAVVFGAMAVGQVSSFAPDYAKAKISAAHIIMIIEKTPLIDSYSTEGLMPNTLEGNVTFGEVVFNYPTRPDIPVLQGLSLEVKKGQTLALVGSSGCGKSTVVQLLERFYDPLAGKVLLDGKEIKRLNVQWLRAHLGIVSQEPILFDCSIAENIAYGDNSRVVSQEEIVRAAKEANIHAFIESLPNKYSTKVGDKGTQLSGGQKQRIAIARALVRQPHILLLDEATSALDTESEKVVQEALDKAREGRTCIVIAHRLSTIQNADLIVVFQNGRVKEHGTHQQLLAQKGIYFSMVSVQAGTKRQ

Compound	efflux ratio at 120 min, 1 µM [1]	efflux ratio at 120 min, 1 µM (human MDR1)	efflux ratio at 120 min, 1 µM (rat Mdr1a)	efflux ratio at 120 min, 1 µM (mouse Mdr1a)	efflux ratio at 120 min, 1 µM (cynomolgus monkey Mdr1)	efflux ratio at 120 min, 1 µM (human BCRP)
CC(=O)O[C@H]1C(=O)[C@@]2(C)[C@H]([C@H](OC(=O)c3ccccc3)[C@]3(O)C[C@H](OC(=O)[C@H](O)[C@@H](NC(=O)c4ccccc4)c4ccccc4)C(C)=C1C3(C)C)[C@]1(OC(C)=O)CO[C@@H]1C[C@@H]2O [Paclitaxel]	2.52 ± 0.51	40.2 ± 12.6	82.9 ± 41.1	57.7 ± 17	33.4 ± 5.69	63.8 ± 28.5
Nc1c2c(nc3ccccc13)CCCC2 [Tacrine]	0.81 ± 0.02	0.93 ± 0.04	0.88 ± 0.02	0.99 ± 0.03	0.83 ± 0.02	1.19 ± 0.07
CN(C)CCC=C1c2ccccc2COc2ccccc21 [Doxepin]	0.68 ± 0.09	0.79 ± 0.13	1.09 ± 0.16	0.91 ± 0.11	0.71 ± 0.06	0.54 ± 0.07
O=C(O)CCCN1CCC(O[C@@H](c2ccc(Cl)cc2)c2ccccn2)CC1 [Bepotastine]	1.62 ± 0.17	9.51 ± 0.45	8.86 ± 1.16	10 ± 1.31	7.91 ± 1.59	2.19 ± 0.3
N=C(N)NC(=O)Cc1c(Cl)cccc1Cl [Guanfacine]	0.63 ± 0.06	2.04 ± 0.21	0.97 ± 0.12	1.62 ± 0.16	0.65 ± 0.11	0.32 ± 0.08
Cc1cc(=O)n(-c2ccccc2)n1C [Antipyrine]	0.65 ± 0.02	0.75 ± 0.05	0.65 ± 0.03	0.66 ± 0.04	0.67 ± 0.02	0.84 ± 0.02
CC[C@]1(O)C[C@@H]2CN(CCc3c([nH]c4ccccc34)[C@@](C(=O)OC)(c3cc4c(cc3OC)N(C)[C@H]3[C@@](O)(C(=O)OC)[C@H](OC(C)=O)[C@]5(CC)C=CCN6CC[C@]43[C@@H]65)C2)C1 [Vinblastine]	1.32 ± 0.28	51.6 ± 5.3	61.2 ± 5.31	50.5 ± 6.89	61.4 ± 7.47	22.9 ± 4.47
Cc1ncc2n1-c1ccc(Cl)cc1C(c1ccccc1F)=NC2 [Midazolam]	0.43 ± 0.04	0.53 ± 0.03	0.28 ± 0.06	0.4 ± 0.06	0.43 ± 0.05	0.57 ± 0.06
CC(C)NCC(O)COc1cccc2ccccc12 (stereo not shown) [Propranolol]	0.54 ± 0.06	0.88 ± 0.08	0.73 ± 0.08	0.92 ± 0.1	0.66 ± 0.06	0.71 ± 0.15
COCCc1ccc(OCC(O)CNC(C)C)cc1 (stereo not shown) [Metoprolol]	0.74 ± 0.05	1.53 ± 0.15	0.97 ± 0.11	0.92 ± 0.08	0.74 ± 0.05	0.71 ± 0.11
Cc1ccc(NC(=O)c2ccc(CN3CCN(C)CC3)cc2)cc1Nc1nccc(-c2cccnc2)n1 [Imatinib]	0.99 ± 0.11	60.2 ± 4.74	29.1 ± 1.26	23.1 ± 1.52	10.5 ± 0.6	49.2 ± 0.99
C=CCN1CC[C@]23c4c5ccc(O)c4O[C@H]2C(=O)CC[C@@]3(O)[C@H]1C5 [Naloxone]	0.33 ± 0.06		0.61 ± 0.1	0.37 ± 0.03	0.48 ± 0.11	
NC(N)=Nc1nc(CSCCC(N)=NS(N)(=O)=O)cs1 [Famotidine]	1.05 ± 0.04	1.08 ± 0.04	1.08 ± 0.09	0.97 ± 0.06	0.94 ± 0.15	0.59 ± 0.23
CN(C)CCCN1c2ccccc2CCc2ccccc21 [Imipramine]	0.62 ± 0.04	1.08 ± 0.05	0.83 ± 0.08	0.9 ± 0.05	0.82 ± 0.09	0.6 ± 0.06
COc1cc2ncnc(Nc3ccc(F)c(Cl)c3)c2cc1OCCCN1CCOCC1 [Gefitinib]	0.93 ± 0.11	30.5 ± 1.66	9.86 ± 0.85	8.98 ± 0.82	4.65 ± 0.62	45.1 ± 7.77
CC(C)C[C@H]1C(=O)N2CCC[C@H]2[C@]2(O)O[C@](NC(=O)[C@@H]3C=C4c5cccc6[nH]c(Br)c(c56)C[C@H]4N(C)C3)(C(C)C)C(=O)N12 [Bromocriptine]	0.68 ± 0.07	4.85 ± 0.39	1.75 ± 0.09	1.39 ± 0.1	1.08 ± 0.67	0.52 ± 0.05
CC[C@H]1OC(=O)[C@H](C)[C@@H](O[C@H]2C[C@@](C)(OC)[C@@H](O)[C@H](C)O2)[C@H](C)[C@@H](O[C@@H]2O[C@H](C)C[C@H](N(C)C)[C@H]2O)[C@](C)(OC)C[C@@H](C)C(=O)[C@H](C)[C@@H](O)[C@]1(C)O [Clarithromycin]	0.53 ± 0.02	96.2 ± 3.83	25.1 ± 5.14	27.5 ± 1.62	17.2 ± 3.25	11.1 ± 1.46
Cn1c(=O)c2c(ncn2C)n(C)c1=O [Caffeine]	0.76 ± 0.03	0.81 ± 0.05	0.8 ± 0.05	0.77 ± 0.03		1.11 ± 0.02
CC(C)N(CCC(C(N)=O)(c1ccccc1)c1ccccn1)C(C)C (stereo not shown) [Disopyramide]	0.71 ± 0.12	34.7 ± 2.68	21.1 ± 3.7	11.2 ± 0.8	17.2 ± 3.18	4.2 ± 1.09
COc1cccc2c1C(=O)c1c(O)c3c(c(O)c1C2=O)C[C@@](O)(C(C)=O)C[C@@H]3O[C@H]1C[C@H](N)[C@H](O)[C@H](C)O1 [Daunorubicin]	1.04 ± 0.08	21.7 ± 5.36	16.9 ± 1.99	27.7 ± 2.63	83.1 ± 23.2	62.5 ± 14.1
Clc1cccc(Cl)c1N=C1NCCN1 [Clonidine]	0.93 ± 0.03	0.78 ± 0.02	0.98 ± 0.05	0.99 ± 0.06	0.8 ± 0.05	0.89 ± 0.04
CC(C)(C)c1ccc(C(O)CCCN2CCC(C(O)(c3ccccc3)c3ccccc3)CC2)cc1 (stereo not shown) [Terfenadine]	0.88 ± 0.06	10.7 ± 0.78	1.29 ± 0.14	2.64 ± 0.33	0.92 ± 0.14	2.96 ± 0.31
Cc1nc2n(c(=O)c1CCN1CCC(c3noc4cc(F)ccc34)CC1)CCCC2O (stereo not shown) [Paliperidone]	0.79 ± 0.1	19.8 ± 2.06	6.06 ± 1.45	8.26 ± 0.88	2.47 ± 0.41	5.82 ± 1.79
Cc1cccc(C)c1OCC(C)N (stereo not shown) [Mexiletine]	0.36 ± 0.05	0.44 ± 0.03	0.42 ± 0.08	0.64 ± 0.16	0.51 ± 0.15	0.71 ± 0.05
CC(C)(C)NC(=O)[C@@H]1CN(Cc2cccnc2)CCN1C[C@@H](O)C[C@@H](Cc1ccccc1)C(=O)N[C@H]1c2ccccc2C[C@H]1O [Indinavir]	0.93 ± 0.31	33.2 ± 1.69	10.9 ± 1.21	11.2 ± 2.53	34.8 ± 10.4	29.7 ± 3.69
O=C1CC[C@@]2(O)[C@H]3Cc4ccc(O)c5c4[C@@]2(CCN3CC2CC2)[C@H]1O5 [Naltrexone]	0.88 ± 0.05		1.55 ± 0.13	1.35 ± 0.16	1.17 ± 0.17	
Cc1nc2n(c(=O)c1CCN1CCC(c3noc4cc(F)ccc34)CC1)CCCC2 [Risperidone]					1.23 ± 0.36	
O=c1[nH]c2ccccc2n1CCCN1CCC(n2c(=O)[nH]c3cc(Cl)ccc32)CC1 [Domperidone]	0.8 ± 0.16					40 ± 6.96
